Measured values taken from ChEMBL document CHEMBL5131445, “Optimization of a novel piperazinone series as potent selective peripheral covalent BTK inhibitors” (Bioorg Med Chem Lett, 2022).
Converted amounts (≈) assume the structure as drawn.

How the values were obtained:
[1] = target: Tyrosine-protein kinase BTK (Homo sapiens, UniProt Q06187); assay: Inhibition of BTK (unknown origin)
[2] = Clearance in iv dosed Sprague-Dawley rat; type: ADME, organism-based; settings: in vivo
[3] = Inhibition of CD69 expression on CD19 positive B cells in anti-IgD stimulated human whole blood; type: functional, tissue-based; settings: CD19 positive B cell
[4] = Metabolic stability in rat liver microsomes assessed as intrinsic clearance; type: ADME, Microsome; settings: read-out: CLH
[5] = target: Tyrosine-protein kinase Blk (Homo sapiens, UniProt P51451); assay: Binding affinity to BLK (unknown origin) assessed as dissociation constant by KINOMEscan analysis
[6] = target: Epidermal growth factor receptor (Homo sapiens, UniProt P00533); assay: Binding affinity to EGFR (unknown origin) assessed as dissociation constant by KINOMEscan analysis
[7] = target: T1, Tyrosine-protein kinase ITK/TSK (Homo sapiens, UniProt Q08881); assay: Binding affinity to ITK (unknown origin) assessed as dissociation constant by KINOMEscan analysis
T1 sequence (Q08881 whole entry): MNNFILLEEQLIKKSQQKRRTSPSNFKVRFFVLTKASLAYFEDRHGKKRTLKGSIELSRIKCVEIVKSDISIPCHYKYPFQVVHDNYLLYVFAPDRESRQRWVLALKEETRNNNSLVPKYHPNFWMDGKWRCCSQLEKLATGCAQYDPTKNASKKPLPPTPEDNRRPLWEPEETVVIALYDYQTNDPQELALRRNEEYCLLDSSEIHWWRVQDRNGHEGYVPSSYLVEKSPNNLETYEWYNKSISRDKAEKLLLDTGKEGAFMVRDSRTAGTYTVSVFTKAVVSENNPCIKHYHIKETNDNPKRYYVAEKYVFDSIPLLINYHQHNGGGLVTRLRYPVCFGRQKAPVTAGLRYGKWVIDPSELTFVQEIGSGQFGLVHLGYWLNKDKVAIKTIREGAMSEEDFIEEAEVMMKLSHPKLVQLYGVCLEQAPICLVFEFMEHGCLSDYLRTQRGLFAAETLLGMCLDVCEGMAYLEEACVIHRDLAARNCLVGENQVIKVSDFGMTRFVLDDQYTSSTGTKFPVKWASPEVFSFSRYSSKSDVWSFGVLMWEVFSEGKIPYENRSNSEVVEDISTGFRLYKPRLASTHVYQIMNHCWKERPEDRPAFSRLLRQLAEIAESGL

[8] = target: T2, Tyrosine-protein kinase Tec (Homo sapiens, UniProt P42680); assay: Binding affinity to TEC (unknown origin) assessed as dissociation constant by KINOMEscan analysis
T2 sequence (P42680 whole entry): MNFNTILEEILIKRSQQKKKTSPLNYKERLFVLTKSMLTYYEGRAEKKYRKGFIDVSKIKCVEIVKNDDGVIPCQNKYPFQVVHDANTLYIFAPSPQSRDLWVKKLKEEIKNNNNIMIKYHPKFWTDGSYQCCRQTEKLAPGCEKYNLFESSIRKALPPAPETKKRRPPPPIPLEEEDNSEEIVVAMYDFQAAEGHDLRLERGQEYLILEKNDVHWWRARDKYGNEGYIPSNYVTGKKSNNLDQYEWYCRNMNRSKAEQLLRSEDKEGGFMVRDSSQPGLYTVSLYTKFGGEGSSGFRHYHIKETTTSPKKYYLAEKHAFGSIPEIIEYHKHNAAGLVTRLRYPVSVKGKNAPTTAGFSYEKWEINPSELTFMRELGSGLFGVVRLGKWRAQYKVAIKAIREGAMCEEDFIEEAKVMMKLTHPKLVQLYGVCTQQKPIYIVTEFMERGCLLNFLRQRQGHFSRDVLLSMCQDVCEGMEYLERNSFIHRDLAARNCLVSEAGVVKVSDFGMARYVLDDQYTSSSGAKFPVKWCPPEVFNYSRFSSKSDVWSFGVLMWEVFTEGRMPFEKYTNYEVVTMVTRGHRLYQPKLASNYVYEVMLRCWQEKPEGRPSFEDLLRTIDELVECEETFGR

[9] = target: T3, Cytochrome P450 1A2 (Homo sapiens, UniProt P05177); assay: Inhibition of human CYP1A2; type: ADME
T3 sequence (P05177 whole entry): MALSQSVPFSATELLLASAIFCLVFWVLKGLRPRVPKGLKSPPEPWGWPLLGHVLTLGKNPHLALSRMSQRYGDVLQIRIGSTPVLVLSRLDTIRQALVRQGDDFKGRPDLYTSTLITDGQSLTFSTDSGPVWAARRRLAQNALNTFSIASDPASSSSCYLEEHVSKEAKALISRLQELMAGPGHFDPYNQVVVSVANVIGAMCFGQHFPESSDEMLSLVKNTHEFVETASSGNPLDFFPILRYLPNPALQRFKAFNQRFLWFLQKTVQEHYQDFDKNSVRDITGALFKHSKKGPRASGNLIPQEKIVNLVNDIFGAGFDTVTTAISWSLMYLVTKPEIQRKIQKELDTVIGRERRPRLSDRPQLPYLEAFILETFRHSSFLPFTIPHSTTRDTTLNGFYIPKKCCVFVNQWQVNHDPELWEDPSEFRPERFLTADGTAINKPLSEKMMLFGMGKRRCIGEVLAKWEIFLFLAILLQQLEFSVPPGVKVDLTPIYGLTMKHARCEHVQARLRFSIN

[10] = target: T4, Cytochrome P450 2B6 (Homo sapiens, UniProt P20813); assay: Inhibition of human CYP2B6; type: ADME
T4 sequence (P20813 whole entry): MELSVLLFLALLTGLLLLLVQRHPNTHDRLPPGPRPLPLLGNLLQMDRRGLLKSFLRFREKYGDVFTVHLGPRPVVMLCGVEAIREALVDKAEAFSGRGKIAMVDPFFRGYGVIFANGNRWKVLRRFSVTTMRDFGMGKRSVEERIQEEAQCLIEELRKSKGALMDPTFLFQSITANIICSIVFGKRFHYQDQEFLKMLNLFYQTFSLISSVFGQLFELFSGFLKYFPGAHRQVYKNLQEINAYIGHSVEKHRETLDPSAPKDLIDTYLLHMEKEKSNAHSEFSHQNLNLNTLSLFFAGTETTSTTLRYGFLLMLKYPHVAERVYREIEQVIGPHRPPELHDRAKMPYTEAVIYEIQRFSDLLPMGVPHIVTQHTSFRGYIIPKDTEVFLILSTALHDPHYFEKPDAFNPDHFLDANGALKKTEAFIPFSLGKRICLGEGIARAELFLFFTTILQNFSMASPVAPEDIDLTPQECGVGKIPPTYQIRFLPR

[11] = target: Cytochrome P450 2D6 (Homo sapiens, UniProt P10635); assay: Inhibition of human CYP2D6; type: ADME
[12] = system: BCRP; assay: Permeability across apical to basolateral side in dog MDCK-BCRP cells; type: ADME, cell-based, Canis lupus familiaris; settings: read-out: permeability
[13] = system: MDR1; assay: Permeability across apical to basolateral side in dog MDCK-MDR1 cells; type: ADME, cell-based, Canis lupus familiaris; settings: read-out: permeability
[14] = Kinetic aqueous solubility of the compound at pH 6.8 by shake flask assay; type: physicochemical; settings: read-out: Kinetic_solubility
[15] = Volume of distribution at steady state in iv dosed Sprague-Dawley rat; type: ADME, organism-based; settings: in vivo, read-out: Vdss

Sequence of Tyrosine-protein kinase BTK (Q06187 whole entry): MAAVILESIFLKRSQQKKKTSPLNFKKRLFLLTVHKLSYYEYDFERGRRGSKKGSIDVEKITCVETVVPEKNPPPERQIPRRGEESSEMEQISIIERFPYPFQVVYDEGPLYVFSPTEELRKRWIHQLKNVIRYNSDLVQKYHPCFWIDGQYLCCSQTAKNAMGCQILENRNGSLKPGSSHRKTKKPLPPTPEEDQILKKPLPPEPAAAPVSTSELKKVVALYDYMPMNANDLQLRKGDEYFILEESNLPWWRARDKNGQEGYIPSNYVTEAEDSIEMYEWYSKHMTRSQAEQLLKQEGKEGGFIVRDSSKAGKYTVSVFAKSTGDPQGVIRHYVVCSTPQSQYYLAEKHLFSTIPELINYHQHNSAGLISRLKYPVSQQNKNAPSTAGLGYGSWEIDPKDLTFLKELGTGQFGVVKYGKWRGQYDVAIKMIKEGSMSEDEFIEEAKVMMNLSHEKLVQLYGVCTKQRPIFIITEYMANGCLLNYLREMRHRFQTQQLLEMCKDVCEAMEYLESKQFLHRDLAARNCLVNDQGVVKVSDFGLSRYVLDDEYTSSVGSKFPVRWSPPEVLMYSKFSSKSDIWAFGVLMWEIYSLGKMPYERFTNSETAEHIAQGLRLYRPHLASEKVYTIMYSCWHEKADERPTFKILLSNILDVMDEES
Sequence of Cytochrome P450 2D6 (P10635 whole entry): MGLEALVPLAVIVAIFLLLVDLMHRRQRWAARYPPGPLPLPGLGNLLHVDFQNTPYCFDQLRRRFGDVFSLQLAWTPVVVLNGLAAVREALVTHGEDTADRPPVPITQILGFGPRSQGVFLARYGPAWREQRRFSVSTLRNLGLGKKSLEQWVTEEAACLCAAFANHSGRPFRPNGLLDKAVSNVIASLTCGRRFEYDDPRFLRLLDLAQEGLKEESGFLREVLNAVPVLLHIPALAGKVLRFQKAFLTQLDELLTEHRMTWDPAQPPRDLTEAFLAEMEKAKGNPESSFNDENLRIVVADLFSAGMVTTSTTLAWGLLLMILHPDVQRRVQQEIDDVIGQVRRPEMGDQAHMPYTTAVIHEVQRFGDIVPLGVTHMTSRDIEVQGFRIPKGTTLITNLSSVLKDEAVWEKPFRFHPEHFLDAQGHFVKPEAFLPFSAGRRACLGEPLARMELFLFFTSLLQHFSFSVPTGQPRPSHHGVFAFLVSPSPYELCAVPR
Sequence of Epidermal growth factor receptor (P00533 whole entry): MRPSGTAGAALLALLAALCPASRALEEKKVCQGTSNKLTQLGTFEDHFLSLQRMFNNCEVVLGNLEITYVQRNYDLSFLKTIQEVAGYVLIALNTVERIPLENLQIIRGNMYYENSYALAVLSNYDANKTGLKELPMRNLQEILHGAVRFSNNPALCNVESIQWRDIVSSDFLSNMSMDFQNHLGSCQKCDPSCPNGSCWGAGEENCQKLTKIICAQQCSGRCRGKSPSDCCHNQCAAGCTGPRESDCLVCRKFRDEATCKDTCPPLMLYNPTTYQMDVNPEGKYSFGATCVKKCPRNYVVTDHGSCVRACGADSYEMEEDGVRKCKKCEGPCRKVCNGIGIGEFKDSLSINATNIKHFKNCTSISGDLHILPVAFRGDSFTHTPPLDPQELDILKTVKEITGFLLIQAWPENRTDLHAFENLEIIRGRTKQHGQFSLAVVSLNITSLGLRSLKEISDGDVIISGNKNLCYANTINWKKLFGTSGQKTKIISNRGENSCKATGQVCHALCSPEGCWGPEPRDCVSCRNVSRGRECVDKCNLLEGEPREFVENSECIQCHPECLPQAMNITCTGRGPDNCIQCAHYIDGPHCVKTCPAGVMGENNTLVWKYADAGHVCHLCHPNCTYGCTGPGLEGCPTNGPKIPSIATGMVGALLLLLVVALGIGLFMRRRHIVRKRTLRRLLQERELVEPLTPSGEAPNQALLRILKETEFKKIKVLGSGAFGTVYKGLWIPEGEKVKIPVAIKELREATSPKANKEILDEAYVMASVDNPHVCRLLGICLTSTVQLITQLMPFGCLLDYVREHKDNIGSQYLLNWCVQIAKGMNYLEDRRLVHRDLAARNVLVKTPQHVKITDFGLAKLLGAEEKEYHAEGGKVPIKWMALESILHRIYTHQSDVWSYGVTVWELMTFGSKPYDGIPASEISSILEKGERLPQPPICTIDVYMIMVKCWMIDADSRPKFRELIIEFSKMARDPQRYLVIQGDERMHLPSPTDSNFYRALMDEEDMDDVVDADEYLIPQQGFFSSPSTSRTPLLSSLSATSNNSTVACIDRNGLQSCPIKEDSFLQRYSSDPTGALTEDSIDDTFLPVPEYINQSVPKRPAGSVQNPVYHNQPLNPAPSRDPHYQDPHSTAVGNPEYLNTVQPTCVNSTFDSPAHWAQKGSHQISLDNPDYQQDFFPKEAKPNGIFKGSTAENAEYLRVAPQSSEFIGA
Sequence of Tyrosine-protein kinase Blk (P51451 whole entry): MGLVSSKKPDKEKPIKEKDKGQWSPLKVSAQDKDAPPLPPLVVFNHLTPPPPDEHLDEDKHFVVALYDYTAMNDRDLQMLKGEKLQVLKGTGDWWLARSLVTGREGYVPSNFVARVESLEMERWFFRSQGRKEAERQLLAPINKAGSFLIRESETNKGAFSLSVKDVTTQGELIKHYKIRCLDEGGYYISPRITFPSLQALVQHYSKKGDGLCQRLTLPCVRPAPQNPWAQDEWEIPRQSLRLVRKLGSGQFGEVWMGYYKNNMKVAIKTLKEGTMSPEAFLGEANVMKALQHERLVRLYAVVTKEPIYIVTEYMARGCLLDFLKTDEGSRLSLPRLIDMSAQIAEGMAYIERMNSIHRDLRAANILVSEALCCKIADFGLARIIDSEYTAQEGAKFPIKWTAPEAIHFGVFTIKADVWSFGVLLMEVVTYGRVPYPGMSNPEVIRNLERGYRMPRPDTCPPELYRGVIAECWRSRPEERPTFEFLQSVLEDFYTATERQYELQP

IC50 [1]: 0.00022 µM
clearance [2]: 126 mL/min/kg
IC50 [3]: 0.03 µM
CLint scaled [4]: 154 mL/min/kg
Kd [5]: 10 µM
Kd [6]: 30 µM
Kd [7]: 30 µM
Kd [8]: 0.24 µM
IC50 [9]: > 10 µM
IC50 [10]: > 10 µM
IC50 [11]: > 10 µM
Papp A→B [12]: 0.4 ×10⁻⁶ cm/s
Papp A→B [13]: 0.32 ×10⁻⁶ cm/s
solubility kinetic [14]: 49 µg/mL (≈ 102 µM)
Vd [15]: 126 L/kg
SMILES: C=CC(=O)N(C)CCOc1c(N)ncnc1-c1ccc(CN2CCN(CC(C)C)CC2=O)c(C)c1
